The text below walks through data of patent US12570655B2, “Cysteine covalent modifiers of AKT1 and uses thereof” (Terremoto Biosciences, Inc., priority 2023, dated 2026).

The target of one assay is T1, AKT2 (Homo sapiens, UniProt P31751).
T1 construct: expressed in transfected cells; host or cells: HEK293
The assay can be described thus: Live cell AKT2 target engagement by NanoBRET competitive probe displacement. The format is cell-based. The following applies: HEK293 cells transfected with kinase-NanoLuciferase fusion, 2 h at 37° C. Put shortly: (§1)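 Steps: overnight transfection of HEK293 with kinase-NanoLuc plasmids; addition of compound dilutions and tracer (~EC50); 2 h incubation at 37 °C; substrate plus extracellular luciferase inhibitor; luminescence at 460 and 600 nm. IC50 values came from fitting the BRET ratio to a Hill equation.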

Assay [1] concerns the target T2, AKT1 E17K (Homo sapiens, UniProt P31749, DEL120-128/E133D/E17K/G130S/INS132HT/S129A).
T2 construct: Akt1(DrLink)-WT/E17K were gene synthesized and cloned by Gibson assembly into the pFastBac vector; His8 followed by TEV site (MSHHHHHHHHGSENLYFQS) (N); DrLink (replaced PH-kinase interdomain linker, part of the construct's name); made in house; host or cells: Akt1(DrLink): baculovirus/Sf9; NB41: E. coli Rosetta 2(DE3)pLysS
The assay can be described thus: Co-crystallization showing covalent complex formation with AKT1 E17K. The following applies: AKT1(DrLink)-E17K-NB41 complex, electron density. Here is the method: (§2) Akt1(DrLink)-NB41 Complex Formation
(§3) NB41 was added to AKT(DrLink)-WT/E17K using a 1.2:1 molar ratio and incubated for 10 minutes at 4° C. Final concentration of 10 mM EDTA was then added to this complex. The complex was purified by gel filtration on Superdex 200 (10/300 GL) column (gel filtration buffer: 20 mM HEPES pH 8.0, 20 mM NaCl, 5 mM DTT). The resulting complex was then concentrated to […] and flash-frozen in liquid nitrogen and stored at −80° C. This complex was then used for crystal formation.
(§4) Crystallization, Data Collection and Structure Determination
(§5) 6 mg/mL AKT1 WT or E17K DrLink-NB41 complex is incubated with 1 mM TMB Compound 13 on ice for 2 hours prior to crystallization trials. Crystals were obtained by the vapor diffusion technique at 20′C after mixing an equal volume of the complex with the well solution containing 17-23% PEG3350, 200 mM Li2SO4, 100 mM Bis Tris Propane pH 6.5-9.0, 10% ethylene glycol. Crystals grew within 3 days. Crystals were cryo protected in mother liquor supplemented with […] and flash cooled in liquid nitrogen for storage and data collection. All diffraction datasets were collected and processed by Helix Biostructures at ESRF beamline TD30B on Sep. 1, 2023. […] The initial structures were determined through molecular replacement with Phaser in CCP4 suite with the structure […] 7APJ as a search model. […]

For assay [2], the system named is LAPC4 prostate cancer cells. As to the kind of experiment: Antiproliferative effects in LAPC4 cells (CellTiter Glo). Format: cell-based. Particulars: Homo sapiens, LAPC4, 72 h, LAPC4 cells (AKT1 E17K allele), read-out: LAPC4 proliferation IC50. In outline: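 Growth inhibition is gauged by intracellular ATP content, measured with CellTiter Glo 72 h after compound addition to 1,000 seeded cells per well. IC50 derives from a Hill equation fit.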

A further assay concerns the target T3, AKT E17K (Homo sapiens, UniProt P31749, DEL120-128/E133D/E17K/G130S/INS132HT/S129A).
T3 construct: Akt1(DrLink)-WT/E17K were gene synthesized and cloned by Gibson assembly into the pFastBac vector; His8 followed by TEV site (MSHHHHHHHHGSENLYFQS) (N); DrLink (replaced PH-kinase interdomain linker, part of the construct's name); made in house; host or cells: Akt1(DrLink): baculovirus/Sf9; NB41: E. coli Rosetta 2(DE3)pLysS
As to the kind of experiment: Compound 13/AKT E17K co-crystallization complex, crystal structure. The format is binding. Particulars: FIG. 2C.

The target in assay [3] is T4, AKT1 E17K (Homo sapiens, UniProt P31749, E17K).
T4 construct: expressed in transfected cells; host or cells: HEK293
The assay can be described thus: Live cell AKT1 E17K target engagement by NanoBRET competitive probe displacement. The format is cell-based. Particulars: HEK293 cells transfected with kinase-NanoLuciferase fusion, 2 h at 37° C. In outline: as §1

The target in assay [4] is T5, AKT1 WT (Homo sapiens, UniProt P31749, DEL120-128/E133D/G130S/INS132HT/S129A).
T5 construct: Akt1(DrLink)-WT/E17K were gene synthesized and cloned by Gibson assembly into the pFastBac vector; His8 followed by TEV site (MSHHHHHHHHGSENLYFQS) (N); DrLink (replaced PH-kinase interdomain linker, part of the construct's name); made in house; host or cells: Akt1(DrLink): baculovirus/Sf9; NB41: E. coli Rosetta 2(DE3)pLysS
The assay can be described thus: Compound 13/AKT1 WT co-crystallization complex, crystal structure. Particulars: FIG. 1C. Format: binding.
Target sequence in this assay (P31749 with tags, fused parts or gaps DEL120-128/S129A/G130S/INS132HT/E133D): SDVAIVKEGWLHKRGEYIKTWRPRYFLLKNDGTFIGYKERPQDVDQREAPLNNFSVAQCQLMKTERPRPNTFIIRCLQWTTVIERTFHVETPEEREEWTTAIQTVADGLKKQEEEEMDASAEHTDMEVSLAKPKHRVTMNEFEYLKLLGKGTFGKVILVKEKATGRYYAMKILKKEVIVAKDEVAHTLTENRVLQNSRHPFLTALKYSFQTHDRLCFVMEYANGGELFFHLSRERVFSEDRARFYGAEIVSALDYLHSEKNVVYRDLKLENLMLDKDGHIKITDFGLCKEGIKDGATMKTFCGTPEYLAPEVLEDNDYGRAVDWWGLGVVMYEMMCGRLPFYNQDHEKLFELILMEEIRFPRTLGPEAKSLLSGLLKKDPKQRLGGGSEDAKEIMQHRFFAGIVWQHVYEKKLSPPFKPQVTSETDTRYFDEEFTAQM

In assay [5] the target is T5, AKT1 WT. As to the kind of experiment: Co-crystallization showing covalent complex formation with AKT1 WT. The following applies: AKT1(DrLink)-WT-NB41 complex, electron density. Here is the method:
as §2, §3, §4, §5
Target sequence in this assay (P31749 with tags, fused parts or gaps DEL120-128/S129A/G130S/INS132HT/E133D): as above
Target sequence in this assay (as listed by the source partner): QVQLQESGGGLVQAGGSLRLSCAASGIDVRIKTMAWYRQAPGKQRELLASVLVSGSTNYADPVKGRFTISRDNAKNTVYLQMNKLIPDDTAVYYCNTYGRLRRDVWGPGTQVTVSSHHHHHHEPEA

For assay [6], the target named is T6, AKT1 WT (Homo sapiens, UniProt P31749).
T6 construct: expressed in transfected cells; host or cells: HEK293
The assay can be described thus: Live cell AKT1 WT target engagement by NanoBRET competitive probe displacement. The format is cell-based. Particulars: HEK293 cells transfected with kinase-NanoLuciferase fusion, 2 h at 37° C. Put shortly: as §1
(In general: Bioluminescence resonance energy transfer reports proximity on the nanometre scale.)

T6 sequence (P31749 whole entry): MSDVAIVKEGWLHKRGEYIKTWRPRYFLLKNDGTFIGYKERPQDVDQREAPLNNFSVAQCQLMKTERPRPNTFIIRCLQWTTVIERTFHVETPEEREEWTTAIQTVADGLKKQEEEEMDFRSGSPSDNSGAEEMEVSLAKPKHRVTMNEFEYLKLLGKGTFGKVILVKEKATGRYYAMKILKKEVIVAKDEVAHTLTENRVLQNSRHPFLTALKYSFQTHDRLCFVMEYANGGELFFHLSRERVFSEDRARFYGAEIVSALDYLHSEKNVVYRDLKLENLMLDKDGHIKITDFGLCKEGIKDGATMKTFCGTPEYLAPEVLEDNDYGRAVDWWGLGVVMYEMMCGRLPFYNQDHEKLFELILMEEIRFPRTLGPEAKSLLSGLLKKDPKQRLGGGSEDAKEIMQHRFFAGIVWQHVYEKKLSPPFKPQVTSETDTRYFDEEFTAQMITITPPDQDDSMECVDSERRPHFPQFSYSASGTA
T3 sequence (P31749 with tags, fused parts or gaps E17K/DEL120-128/S129A/G130S/INS132HT/E133D): as the sequence (P31749 with tags, fused parts or gaps DEL120-128/S129A/G130S/INS132HT/E133D) above, with E16K counted along it
T3 sequence (as listed by the source partner): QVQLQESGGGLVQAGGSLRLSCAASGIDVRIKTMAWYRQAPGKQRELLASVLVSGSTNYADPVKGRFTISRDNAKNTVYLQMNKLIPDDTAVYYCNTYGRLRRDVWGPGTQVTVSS
T2 sequence (P31749 with tags, fused parts or gaps E17K/DEL120-128/S129A/G130S/INS132HT/E133D): as the sequence (P31749 with tags, fused parts or gaps DEL120-128/S129A/G130S/INS132HT/E133D) above, with E16K counted along it
T1 sequence (P31751 whole entry): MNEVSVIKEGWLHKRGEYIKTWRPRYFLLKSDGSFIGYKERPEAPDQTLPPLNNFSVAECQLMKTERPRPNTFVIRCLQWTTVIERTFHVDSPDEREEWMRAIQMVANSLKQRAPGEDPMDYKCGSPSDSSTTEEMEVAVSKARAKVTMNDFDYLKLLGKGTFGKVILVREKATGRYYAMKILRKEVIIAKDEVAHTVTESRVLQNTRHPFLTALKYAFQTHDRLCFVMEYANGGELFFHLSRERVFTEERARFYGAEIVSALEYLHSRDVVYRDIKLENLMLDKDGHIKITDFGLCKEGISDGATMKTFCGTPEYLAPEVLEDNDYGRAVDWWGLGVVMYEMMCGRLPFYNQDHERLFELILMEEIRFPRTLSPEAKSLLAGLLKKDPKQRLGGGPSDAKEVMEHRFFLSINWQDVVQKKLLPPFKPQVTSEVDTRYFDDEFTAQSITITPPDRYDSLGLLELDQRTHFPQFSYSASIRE
T4 sequence (P31749 whole entry E17K): as the sequence (P31749 whole entry) above, with E17K counted along it

For the compound `C=CC(=O)N1CCC(N[C@H]2CCc3cc(-n4c(-c5cccnc5N)nc5ccc(-n6cccn6)nc54)ccc32)CC1` [Example 13, 1-(4-{[(1S)-5-[2-(2-aminopyridin-3-yl)-5-(pyrazol-1-yl)imidazo[4,5-b]pyridin-3-yl]-2,3-dihydro-1H-inden-1-yl]amino}piperidin-1-yl)prop-2-en-1-one], the IC50 on AKT2 was determined as 224 nM; in assay [2], 144 nM; on AKT1 E17K [3], 56.1 nM; on AKT1 WT [6], 17 nM. In addition, the “covalent bond formation in co-crystal structure” value on AKT1 E17K [1] and at AKT1 WT [5] was “covalent bond formation with C296” each time. The “interaction seen in the co-crystal structure (site of covalent attachment)” value at AKT E17K is “covalent bond between C296 cysteine residue of AKT E17K and Compound 13”; on AKT1 WT [4], “covalent bond between C296 cysteine residue of AKT1 WT and Compound 13”.
